Data published in paper PMC10065799, “High-throughput profiling of sequence recognition by tyrosine kinases and SH2 domains using bacterial peptide display” (eLife, 2023).

Biological target: T1, c-Abl kinase domain (Mus musculus, UniProt P00520)
T1 sequence (P00520 242-493 limits assumed): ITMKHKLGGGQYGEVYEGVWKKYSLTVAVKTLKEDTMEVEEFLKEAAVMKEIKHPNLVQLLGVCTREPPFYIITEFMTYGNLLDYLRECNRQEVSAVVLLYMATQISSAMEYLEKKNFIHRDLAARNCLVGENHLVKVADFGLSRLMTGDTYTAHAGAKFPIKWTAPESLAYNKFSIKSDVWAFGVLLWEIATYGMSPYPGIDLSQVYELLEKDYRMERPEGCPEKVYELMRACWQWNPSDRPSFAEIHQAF
Assay: pTyr-Var library bacterial peptide display kinase screen (enrichment scores)
Type: biochemical
Details: variant versus reference peptide

ATGLIYIGSHD [AASDH_Y870_T865A]
c-Abl difference (mean log2 variant - mean log2 reference): 0.7644
